Measured values published in PubChem BioAssay (NCI).
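Values below derive from 48-hour exposures of cells grown in 96-well plates, with endpoints linearly interpolated between the two concentrations bracketing the appropriate inhibition level. GI50 is the concentration that inhibits growth by half. The concentration for full growth arrest is given as TGI.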

Assays:
Test in all cases: DTP human tumour cell line panel, 48 h
[1] = system: HT29 colon
[2] = system: NCI/ADR-RES ovarian
[3] = system: HCT-15 colon
[4] = system: RPMI-8226 leukemia
[5] = system: BT-549 breast
[6] = system: HL-60(TB) leukemia
[7] = system: SK-MEL-2 melanoma
[8] = system: RXF 393 renal
[9] = system: LOX IMVI melanoma
[10] = system: SF-295 CNS
[11] = system: SF-539 CNS
[12] = system: HCC-2998 colon
[13] = system: SF-268 CNS
[14] = system: UACC-62 melanoma
[15] = system: UO-31 renal
[16] = system: IGROV1 ovarian
[17] = system: U251 CNS
[18] = system: SNB-75 CNS
[19] = system: COLO 205 colon
[20] = system: UACC-257 melanoma
[21] = system: DU-145 prostate
[22] = system: SK-OV-3 ovarian
[23] = system: MDA-MB-231 breast
[24] = system: HOP-92 NSCLC
[25] = system: MDA-MB-435
[26] = system: 786-0 renal
[27] = system: MALME-3M melanoma
[28] = system: OVCAR-3 ovarian
[29] = system: TK-10 renal

COc1ccc2[nH]c(O)c(N=Nc3nc(-c4ccc(Br)cc4)cs3)c2c1
GI50 [1]: 7.18 µM | TGI [1]: > 100 µM | GI50 [2]: 2.1 µM | TGI [2]: 4.58 µM | GI50 [3]: 4.43 µM | TGI [3]: 30.6 µM | GI50 [4]: 3.62 µM | TGI [4]: > 100 µM | GI50 [5]: 7.26 µM | TGI [5]: 36.6 µM | GI50 [6]: 87.8 µM | TGI [6]: > 100 µM | GI50 [7]: 2.6 µM | TGI [7]: 8.11 µM | GI50 [8]: 2.29 µM | TGI [8]: 5.07 µM | GI50 [9]: 3.77 µM | TGI [9]: 12.5 µM | GI50 [10]: 11.3 µM | TGI [10]: 39.3 µM | GI50 [11]: 1.92 µM | TGI [11]: 3.95 µM | GI50 [12]: 4.25 µM | TGI [12]: > 100 µM | GI50 [13]: 6.49 µM | TGI [13]: 36.6 µM | GI50 [14]: 2.97 µM | TGI [14]: > 100 µM | GI50 [15]: 9.13 µM | TGI [15]: 28.2 µM | GI50 [16]: 5.41 µM | TGI [16]: > 100 µM | GI50 [17]: 2.96 µM | TGI [17]: 9.25 µM | GI50 [18]: 3 µM | TGI [18]: 21.3 µM | GI50 [19]: 5.6 µM | TGI [19]: > 100 µM | GI50 [20]: 8.64 µM | TGI [20]: > 100 µM | GI50 [21]: 4.54 µM | TGI [21]: 32.6 µM | GI50 [22]: 6.16 µM | TGI [22]: 50.3 µM | GI50 [23]: 5.35 µM | TGI [23]: 20.7 µM | GI50 [24]: 1.96 µM | TGI [24]: 5.21 µM | GI50 [25]: 6.64 µM | TGI [25]: > 100 µM | GI50 [26]: 1.65 µM | TGI [26]: 3.22 µM | GI50 [27]: 1.69 µM | TGI [27]: 3.2 µM | GI50 [28]: 2.91 µM | TGI [28]: 10.4 µM | GI50 [29]: 14.7 µM | TGI [29]: 89.9 µM
